Measured values as given in patent publication EP1525218B1, “BICYCLIC OLIGOPEPTIDES AND THEIR USE AS GLUCAGON RECEPTOR ANTAGONISTS” (Boehringer Ingelheim Pharma GmbH & Co.KG, priority 2002, dated 2004).
Like-named read-outs stand apart in the source and are kept apart here. Positions of bridges follow the written chain, without caps; N, C: chain ends. Residues, ends and D or L forms follow the SMILES beside them.

What was measured:
Solubility in buffer = type: physicochemical
From the text: and the following solubilities:

human glucagon receptor = target: T1, human glucagon receptor (Homo sapiens, UniProt P47871); assay: Glucagon binding assay (competition binding with 125I-glucagon, BHK-21 cell membranes)
T1 construct: expressed in transfected cells; host or cells: BHK-21(C-13) baby hamster kidney cells, stably transfected (pcDNA3.1 construct, G-418 selection); plasma membranes
Description: Binding of peptides to the glucagon receptor was assayed in a competition binding-assay using a membrane fraction containing the cloned human glucagon receptor and radiolabeled glucagon. The cDNA coding for the human glucagon receptor was cloned into expression vector pcDNA3.1 (Invitrogene). Baby hamster kidney cells (BHK-21(C-13) cells (ATCC)) were transfected with the expression construct for the human glucagon receptor and a stably transfected cell clone was isolated after selection with G-418 (Gibco). Plasma membranes containing the human glucagon receptor were prepared from stably transfected BHK-21 cells. Cells were grown to confluence, washed and detached with ice cold PBS buffer (Gibco), containing 0.05% EDTA and collected in PBS buffer. The cells were collected by centrifugation and suspended in 20 volumes of ice-cold tris buffer (10 mM tris/HCl, pH7.2; 0.01 mM PMSF (Phenylmethylsulfonyl fluoride)) and incubated for 90 minutes. […] The protein-bound radioactivity is separated from unbound ligand by filtration and washing on a Multiscreen-[…] (Millipore) using GC/B filters (Packard) and measured after addition of 20 μl Microscint 20 in a topcount scintillation counter (Packard). The non-specific binding is defined as radioactivity bound in the presence of 1 μM glucagon (Wherl GmbH). Accordingly an IC50 value can be calculated from the results obtained in the above test method. […]

[1] = Metabolic stability with liver microsomes; type: in vitro ADME; details: substrate initial conc. 1 µM, 37°C, up to 45 min
Description: (§1) Incubations with preparations of microsomes and cytosol and with plasma under conditions as described below are suitable to investigate the metabolic stability of test compounds (e.g. oxidative metabolism reactions and hydrolysis by esterases). The metabolic stability of the test compounds of examples 1 and 2 is investigated in liver microsomes and cytosol of humans, dogs and rats and in plasma of humans and rats.
(§2) Incubations of test compounds (final concentration: 1 µM) are performed with liver microsomes and cytosol (0.5 mg protein/ml) in Tris buffer (Tris-(hydroxymethyl)-aminomethane) pH 7.4 (0.1 M) containing magnesium chloride (5 mM) at 37°C for up to 45 min in a total volume of 100 µl. The reaction is initiated by addition of β-nicotinamide adenine dinucleotide phosphate, reduced form (NADPH, 1 mM) and terminated by addition of acetonitrile. After vortex mixing and centrifugation the supernatants are analyzed.
(§3) The samples are analyzed by on-line solid phase extraction and reversed phase HPLC coupled to electro-spray ionization tandem mass spectrometry. The measurements are performed on a triple quad mass spectrometer Quattro II (Micromass, Manchester, UK). The instrument operates at nominal mass resolution in SIR-mode. The analytes are quantified by detection of their quasimolecular ions [M+2H]^2+ m/z 1019 (Example 1) and m/z 1026 (Example 2).

[2] = Metabolic stability with liver cytosol; type: in vitro ADME; details: substrate initial conc. 1 µM, 37°C, up to 45 min
Description: as §1, §2, §3

Stability in plasma = type: in vitro ADME; details: Rat Plasma; substrate initial conc. 1 µM; 37°C, up to 45 min
Description: as §1
Incubations of test substrates (final concentration: 1 µM) are performed with human and rat plasma (heparin) containing 0.1 M Tris buffer pH 7.4. The reaction is initiated by addition of the test compound at 37°C for up to 45 min and terminated by addition of acetonitrile. After vortex mixing and centrifugation the supernatants are analyzed.
as §3

T1 sequence (P47871 26-477): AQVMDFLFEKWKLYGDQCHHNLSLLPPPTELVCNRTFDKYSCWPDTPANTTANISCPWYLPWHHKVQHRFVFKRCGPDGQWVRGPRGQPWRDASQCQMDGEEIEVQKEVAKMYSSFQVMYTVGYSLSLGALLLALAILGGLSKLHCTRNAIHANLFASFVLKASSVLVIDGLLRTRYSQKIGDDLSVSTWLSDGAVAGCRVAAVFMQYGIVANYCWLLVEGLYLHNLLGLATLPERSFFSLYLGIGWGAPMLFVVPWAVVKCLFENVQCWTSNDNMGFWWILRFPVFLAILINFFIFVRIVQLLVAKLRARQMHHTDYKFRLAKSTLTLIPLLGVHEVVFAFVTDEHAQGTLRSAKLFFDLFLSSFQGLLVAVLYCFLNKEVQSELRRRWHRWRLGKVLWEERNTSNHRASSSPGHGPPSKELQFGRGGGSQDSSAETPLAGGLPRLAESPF

Compound	solubilities (Solubility in buffer; Buffer pH 3.0) [mg/mL]	solubilities (Solubility in buffer; Buffer pH 7.4) [mg/mL]	solubilities (Solubility in buffer; Buffer pH 10.0) [mg/mL]	IC50 (human glucagon receptor; competition with 125I-glucagon, membranes with cloned human glucagon receptor, read-out: IC50) [nM]	Half-lives, (t½ [min]) ([1]; Dog Micros)	Half-lives, (t½ [min]) ([1]; Human Micros)	Half-lives, (t½ [min]) ([1]; Rat Micros)	Half-lives, (t½ [min]) ([2]; Dog Cytosol)	Half-lives, (t½ [min]) ([2]; Human Cytosol)	Half-lives, (t½ [min]) ([2]; Rat Cytosol)	Half-lives, (t½ [min]) (Stability in plasma)	IC50 (human glucagon receptor) [nM]
CC[C@H](C)[C@@H]1NC(=O)[C@@H]2CC(=O)NCC(=O)N[C@@H](CC(C)C)C(=O)N3CCC[C@H]3C(=O)N[C@@H](Cc3c[nH]c4ccccc34)C(=O)NCC(=O)N[C@@H](CSSC[C@@H](C(=O)O)NC(=O)[C@H](C)NC(=O)[C@H](Cc3c[nH]c4ccccc34)NC(=O)[C@@H]3CCCN3C(=O)[C@H]([C@@H](C)O)NC(=O)[C@H](CC(N)=O)NC(=O)[C@H](Cc3c[nH]c4ccccc34)NC(=O)CNC(=O)[C@@H]3CCCN3C1=O)C(=O)N1CCC[C@H]1C(=O)N[C@@H](CO)C(=O)N2 [Example 1] (GLPWGCPSDIPGWNTPWAC-OH; disulfide 6-19; lactam N-9)	0.003	0.120	0.092	100	stable	stable	stable	stable	stable	stable	stable	–
CC[C@H](C)[C@@H]1NC(=O)[C@@H]2CC(=O)NCC(=O)N[C@@H](CC(C)C)C(=O)N3CCC[C@H]3C(=O)N[C@@H](Cc3c[nH]c4ccccc34)C(=O)NCC(=O)N[C@@H](CSSC[C@@H](C(=O)OC)NC(=O)[C@H](C)NC(=O)[C@H](Cc3c[nH]c4ccccc34)NC(=O)[C@@H]3CCCN3C(=O)[C@H]([C@@H](C)O)NC(=O)[C@H](CC(N)=O)NC(=O)[C@H](Cc3c[nH]c4ccccc34)NC(=O)CNC(=O)[C@@H]3CCCN3C1=O)C(=O)N1CCC[C@H]1C(=O)N[C@@H](CO)C(=O)N2 [Example 2] (GLPWGCPSDIPGWNTPWAC-OMe; disulfide 6-19; lactam N-9)	0.003	0.002	0.004	–	stable	stable	stable	–	–	–	stable	135
